Where two headings read alike, the source gives them in different places. *1 amine or outer side, *2 acyl side, *3 side chain or, on linkers, in order; H or OH if unused. Where a SMILES comes first, the peptide text is derived from it. Bridges are numbered along the chain shown (N, C = ends). [ ]: non-standard residue; d: D form. The star is where a group is joined. X144 = CN([C@@H](Cc1cc(Cl)ccc1-c1ccc(N2CC(C)(F)C2)nc1)C(=O)[*:2])[*:1]; NMehhhLys(Me) = CN([C@@H](CCCCCCCN(C)[*:3])C(=O)[*:2])[*:1]; X139 = Cc1[nH]ncc1-c1ccc(Cl)cc1C[C@@H](C(=O)[*:2])N(C)[*:1]; X159 = CN([C@@H](Cc1cc(Cl)cnc1Oc1cnn(C)c1)C(=O)[*:2])[*:1]; X168 = Cc1ncc(-c2ccc(Cl)cc2C[C@@H](C(=O)[*:2])N(C)[*:1])o1; X174 = CN([C@@H](Cc1cc(Cl)cnc1-c1cnn(C)c1)C(=O)[*:2])[*:1]; X112 = CN([C@@H](Cc1cc(F)ccc1-c1cnn(C)c1)C(=O)[*:2])[*:1]; X204 = CN([C@@H](Cc1cc(F)ccc1-c1ccnnc1)C(=O)[*:2])[*:1]; NMe(hhhLys) = CN([C@@H](CCCCCCCN[*:3])C(=O)[*:2])[*:1]; Cyclobutanecarbonyl(1-CF3) = O=C(C1(C(F)(F)F)CCC1)*; cBuCO(3,3-F2-1-CF3) = O=C(C1(C(F)(F)F)CC(F)(F)C1)*; Pro(trans-4-F) = O=C(O)[C@@H]1C[C@@H](F)CN1; Gly(cPr) = N[C@H](C(=O)O)C1CC1
What was measured:
[1] = target: T1, CyclinA2/CDK2 (Homo sapiens, UniProt P20248); assay: Fluorescence Polarization (FP) competitive binding assay, Cyclin A2/Cdk2;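 further: plates equilibrated two hours at room temperature before polarization reading, IC50 fitted from eight-concentration compound titration curves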
T1 construct: purchased CRELUX Protein Services

[2] = target: T2, CyclinB1/CDK1 (Homo sapiens, UniProt P14635); assay: Fluorescence Polarization (FP) competitive binding assay, Cyclin B1/Cdk1;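 further: fluorescence polarization read after equilibration at room temperature, with IC50 taken from serially diluted dose-response curves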
T2 construct: purchased Eurofins, discovery 14-450

[3] = target: T3, CyclinE1/CDK2 (Homo sapiens, UniProt P24864); assay: Fluorescence Polarization (FP) competitive binding assay, Cyclin E1/Cdk2;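 further: readings taken after two-hour equilibration at room temperature in HEPES buffer with NaCl, DTT, NP-40 and BSA, IC50 fitted from eight-concentration serial dilution series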
T3 construct: purchased Eurofins, discovery 14-475

[4] = system: NCI-H1048 cells; assay: MTT proliferation assay, NCI-H1048; format: cell-based; details: 5 days compound exposure, 1:3 serial dilution starting at 10 μM;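 further: Dose-response in 96-well plates over 8 or 10 concentration points, with exposure spanning 3-4 cell doublings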
[5] = system: OVCAR3 cells; assay: MTT proliferation assay, OVCAR3; format: cell-based; details: 5 days compound exposure, 1:3 serial dilution starting at 10 μM;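 further: compound given as an 8- or 10-point series, one day after plating, with exposure covering roughly 3-4 cell doublings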
[6] = 8 nM Cyclin A2/Cdk2, 2 nM FAM probe, average of 2-3 independent experiments, read-out: Cyclin A FP IC50
[7] = 10 nM Cyclin B1/Cdk1, 2 nM FAM probe; average of 2-3 independent experiments; read-out: Cyclin B FP IC50
[8] = 10 nM Cyclin E1/Cdk2, 2 nM FAM probe, average of 2-3 independent experiments, read-out: Cyclin E FP IC50
[9] = read-out: Cyclin B FP IC50; 10 nM Cyclin B1/Cdk1, 2 nM FAM probe; average of 2-3 independent experiments

Which results are given for `CC(C)C[C@@H]1NC(=O)[C@@H](N(C)C(=O)[C@@H](NC(=O)[C@@H]2C[C@@H](F)CN2C(=O)C2(C(F)(F)F)CC(F)(F)C2)C2CC2)CC=CCCCCN(C)C(=O)[C@H](Cc2cc(F)cnc2OC2CC2)N(C)C1=O` [Example 126]?
IC50 [1, 6]: 500 nM; IC50 [2, 7]: 20 nM; IC50 [3, 8]: 620 nM; GI50 [4]: 380 nM; GI50 [5]: 310 nM

Which IC50 [1, 6] does the source give for `CC(C)C[C@@H]1NC(=O)[C@@H](N(C)C(=O)[C@@H](NC(=O)[C@@H]2C[C@@H](F)CN2C(=O)C2(C(F)(F)F)CC2)C2CC2)CC=CCCCCNC(=O)[C@H](Cc2cc(Cl)ccc2Cl)N(C)C1=O` (single isomer, unassigned) [Example 5-P2] here?
Its IC50 is 560 nM.

What about the IC50 [2, 7] of the same molecule?
The IC50 was 20 nM.

And the IC50 [3, 8]?
The IC50 was 460 nM.

And the GI50 [4]?
The GI50 was 290 nM.

And the GI50 [5]?
Its GI50 is 560 nM.

With `CC(C)C[C@@H]1NC(=O)[C@@H](N(C)C(=O)[C@@H](NC(=O)[C@@H]2C[C@@H](F)CN2C(=O)C2(C(F)(F)F)CC(F)(F)C2)C2CC2)CCCCCCCNC(=O)[C@H](Cc2cc(F)ccc2-c2ccnnc2)N(C)C1=O` [Example 290] ({cBuCO(3,3-F2-1-CF3)}-[Pro(trans-4-F)][Gly(cPr)][NMe(hhhLys)]L[X204]; lactam 3-C) as the molecule, how does the IC50 [1, 6] read?
Its IC50 is 120 nM.

And the IC50 [2, 7]?
Its IC50 is 20 nM.

What about the IC50 [3, 8] of the same molecule?
Its IC50 is 1790 nM.

What about the GI50 [4] of the same molecule?
The GI50 was 80 nM.

And the GI50 [5]?
Its GI50 is 150 nM.

For `Cc1[nH]ncc1-c1ccc(Cl)cc1C[C@H]1C(=O)N(C)CCCCCCC[C@H](N(C)C(=O)[C@@H](NC(=O)[C@@H]2C[C@@H](F)CN2C(=O)C2(C(F)(F)F)CC(F)(F)C2)C2CC2)C(=O)N[C@@H](CC(C)C)C(=O)N1C` [Example 211] ({cBuCO(3,3-F2-1-CF3)}-[Pro(trans-4-F)][Gly(cPr)][NMehhhLys(Me)]L[X139]; lactam 3-C), which IC50 [1] is on record?
The IC50 was 50 nM.

What about the IC50 [2, 9] of the same molecule?
Its IC50 is 20 nM.

What about the IC50 [3] of the same molecule?
Its IC50 is 1110 nM.

What about the GI50 [4] of the same molecule?
The GI50 was 20 nM.

And the GI50 [5]?
The GI50 was 30 nM.

For `CC(C)C[C@@H]1NC(=O)[C@@H](N(C)C(=O)[C@@H](NC(=O)[C@@H]2C[C@@H](F)CN2C(=O)C2(C(F)(F)F)CCC2)C2CC2)CCCCCCCN(C)C(=O)[C@H](Cc2cc(Cl)cnc2-c2cnn(C)c2)N(C)C1=O` [Example 247] ({Cyclobutanecarbonyl(1-CF3)}-[Pro(trans-4-F)][Gly(cPr)][NMehhhLys(Me)]L[X174]; lactam 3-C), which IC50 [1, 6] is on record?
The IC50 was 20 nM.

What about the IC50 [2, 7] of the same molecule?
The IC50 was 20 nM.

And the IC50 [3, 8]?
The IC50 was 310 nM.

What about the GI50 [4] of the same molecule?
Its GI50 is 50 nM.

And the GI50 [5]?
The GI50 was 40 nM.

For `CC(C)C[C@@H]1NC(=O)[C@@H](N(C)C(=O)[C@@H](NC(=O)[C@@H]2C[C@@H](F)CN2C(=O)C2(C(F)(F)F)CC(F)(F)C2)C2CC2)CCCCCCCN(C)C(=O)[C@H](Cc2cc(F)ccc2-c2cnn(C)c2)N(C)C1=O` [Example 65] ({cBuCO(3,3-F2-1-CF3)}-[Pro(trans-4-F)][Gly(cPr)][NMehhhLys(Me)]L[X112]; lactam 3-C), which IC50 [1, 6] is on record?
Its IC50 is 20 nM.

And the IC50 [2, 7]?
Its IC50 is 20 nM.

And the IC50 [3, 8]?
The IC50 was 270 nM.

What about the GI50 [4] of the same molecule?
The GI50 was 10 nM.

And the GI50 [5]?
Its GI50 is 10 nM.

With `CC(C)C[C@@H]1NC(=O)[C@@H](N(C)C(=O)[C@@H](NC(=O)[C@@H]2C[C@@H](F)CN2C(=O)C2(C(F)(F)F)CC(F)(F)C2)C2CC2)CCCCCCCN(C)C(=O)[C@H](Cc2cc(Cl)cnc2Oc2cnn(C)c2)N(C)C1=O` [Example 323] ({cBuCO(3,3-F2-1-CF3)}-[Pro(trans-4-F)][Gly(cPr)][NMehhhLys(Me)]L[X159]; lactam 3-C) as the molecule, how does the IC50 [1, 6] read?
The IC50 was 30 nM.

What about the IC50 [2, 7] of the same molecule?
The IC50 was 20 nM.

And the IC50 [3, 8]?
The IC50 was 240 nM.

And the GI50 [4]?
Its GI50 is 10 nM.

What about the GI50 [5] of the same molecule?
Its GI50 is 10 nM.

For `Cc1ncc(-c2ccc(Cl)cc2C[C@H]2C(=O)N(C)CCCCCCC[C@H](N(C)C(=O)[C@@H](NC(=O)[C@@H]3C[C@@H](F)CN3C(=O)C3(C(F)(F)F)CC(F)(F)C3)C3CC3)C(=O)N[C@@H](CC(C)C)C(=O)N2C)o1` [Example 206] ({cBuCO(3,3-F2-1-CF3)}-[Pro(trans-4-F)][Gly(cPr)][NMehhhLys(Me)]L[X168]; lactam 3-C), which IC50 ([1]; read-out: Cyclin A FP IC50, 8 nM Cyclin A2/Cdk2, 2 nM FAM probe, average of 2-3 independent experiments) is on record?
The IC50 was 20 nM.

What about the IC50 [2, 9] of the same molecule?
Its IC50 is 20 nM.

And the IC50 [3]?
The IC50 was 200 nM.

What about the GI50 [4] of the same molecule?
The GI50 was 10 nM.

What about the GI50 [5] of the same molecule?
The GI50 was 20 nM.

For `CC(C)C[C@@H]1NC(=O)[C@@H](N(C)C(=O)[C@@H](NC(=O)[C@@H]2C[C@@H](F)CN2C(=O)C2(C(F)(F)F)CC(F)(F)C2)C2CC2)CCCCCCCN(C)C(=O)[C@H](Cc2cc(Cl)ccc2-c2ccc(N3CC(C)(F)C3)nc2)N(C)C1=O` [Example 402] ({cBuCO(3,3-F2-1-CF3)}-[Pro(trans-4-F)][Gly(cPr)][NMehhhLys(Me)]L[X144]; lactam 3-C), which IC50 [1, 6] is on record?
The IC50 was 20 nM.

What about the IC50 [2, 7] of the same molecule?
The IC50 was 20 nM.

What about the IC50 [3, 8] of the same molecule?
Its IC50 is 960 nM.

And the GI50 [4]?
Its GI50 is 40 nM.

And the GI50 [5]?
The GI50 was 10 nM.

`CC(C)C[C@@H]1NC(=O)[C@@H](NC(=O)CNC(=O)[C@@H]2C[C@@H](F)CN2C(=O)C2(C(F)(F)F)CC2)CC=CCCCCNC(=O)[C@H](Cc2cc(Cl)ccc2Cl)N(C)C1=O` [Example 3] was tested. Which IC50 [1, 6] did it give?
Its IC50 is 620 nM.

And the IC50 [2, 7]?
Its IC50 is 20 nM.

And the IC50 [3, 8]?
The IC50 was 680 nM.

And the GI50 [4]?
The GI50 was 460 nM.

And the GI50 [5]?
The GI50 was 720 nM.
